According to ChEMBL document CHEMBL2069296, “A novel series of G-quadruplex ligands with selectivity for HIF-expressing osteosarcoma and renal cancer cell lines” (Bioorg Med Chem Lett, 2012):
Values belong to the molecule of their own block, whether it stands above or below them. The source made the active and inactive calls. No cut-off for these calls is given here.

How the values were obtained:
U2OS [1] = assay: Antiproliferative activity against human U2OS cells after 96 hrs by SRB assay; format: functional, cell-based
PC-3 = assay: Antiproliferative activity against human PC3 cells after 96 hrs by SRB assay; format: functional, cell-based; conditions: PC-3, 96 h
A549 = assay: Antiproliferative activity against human A549 cells after 96 hrs by SRB assay; format: functional, cell-based; conditions: A549, 96 h
HPAC = assay: Antiproliferative activity against human HPAC cells after 96 hrs by SRB assay; format: functional, cell-based
[2] = Antiproliferative activity against human TC135 cells after 96 hrs by SRB assay; format: functional, cell-based; conditions: TC135, 96 h
MG-63 = assay: Antiproliferative activity against human MG63 cells after 96 hrs by SRB assay; format: functional, cell-based; conditions: MG-63, 96 h
SAOS-2 = assay: Antiproliferative activity against human Saos2 cells after 96 hrs by SRB assay; format: functional, cell-based; conditions: SAOS-2, 96 h
MIA PaCa-2 = assay: Antiproliferative activity against human MIAPaCa2 cells after 96 hrs by SRB assay; format: functional, cell-based; conditions: MIA PaCa-2, 96 h
PANC-1 = assay: Antiproliferative activity against human PANC1 cells after 96 hrs by SRB assay; format: functional, cell-based; conditions: PANC-1, 96 h
[3] = Antiproliferative activity against human 786-O cells after 96 hrs by SRB assay; format: functional, cell-based; conditions: 786-0, 96 h
[4] = Antiproliferative activity against human TC32 cells after 96 hrs by SRB assay; format: functional, cell-based; conditions: TC-32, 96 h
[5] = Antiproliferative activity against human TC71 cells after 96 hrs by SRB assay; format: functional, cell-based; conditions: TC-71, 96 h
[6] = Antiproliferative activity against human RCC4/VHL cells after 96 hrs by SRB assay; format: functional, cell-based
HOS = assay: Antiproliferative activity against human HOS cells after 96 hrs by SRB assay; format: functional, cell-based
HOS-TE85 = assay: Antiproliferative activity against human MNNG-HOS cells after 96 hrs by SRB assay; format: functional, cell-based; conditions: HOS-TE85, 96 h
A498 = assay: Antiproliferative activity against human A498 cells after 96 hrs by SRB assay; format: functional, cell-based; conditions: A498, 96 h
[7] = Antiproliferative activity against human RCC4 cells after 96 hrs by SRB assay; format: functional, cell-based; conditions: RCC4, 96 h
WI-38 = assay: Cytotoxicity against human WI38 after 96 hrs by SRB assay; format: cell-based; conditions: WI-38, 96 h
MCF7 = assay: Antiproliferative activity against human MCF7 cells after 96 hrs by SRB assay; format: functional, cell-based; conditions: MCF7, 96 h
OST = assay: Antiproliferative activity against human OST cells after 96 hrs by SRB assay; format: functional, cell-based
[8] = Ratio of cell viability in human RCC4/VHL cells to cell viability in human RCC4 cells in hypoxia condition; format: functional
Nucleic Acid [9] = assay: Binding affinity to HIF1alpha DNA in by circular dichroism; format: nucleic-acid assay
[10] = Ratio of IC50 for human RCC4/VHL cells to IC50 for human RCC4 cells; format: functional
[11] = target: T1, Hypoxia inducible factors; HIF-1-alpha, HIF-2-alpha (Homo sapiens) (UniProt Q16665+Q99814); assay: Inhibition of HIF1 transactivation in human U2OS cells after 4 hrs by luciferase reporter gene assay; format: cell-based
U2OS [12] = assay: Downregulation of HIF1alpha mRNA level in human U2OS cells at 5 fold IC50 concentration after 4 hrs by RT-PCR analysis relative to untreated control; format: functional
[13] = Therapeutic index, ratio of IC50 for human MIAPaCa2 cells to IC50 for human WI38 cells; format: cell-based, MIA PaCa-2; conditions: MIAPaCa2 cells and WI38 cells, read-out: Ratio IC50
[14] = target: Hypoxia-inducible factor 1-alpha (Homo sapiens) (UniProt Q16665); assay: Inhibition of HIF1alpha in human U2OS cells in hypoxia condition; format: cell-based
Hypoxia-inducible factor 1-alpha (Homo sapiens), sequence (Q16665 whole entry, looked up): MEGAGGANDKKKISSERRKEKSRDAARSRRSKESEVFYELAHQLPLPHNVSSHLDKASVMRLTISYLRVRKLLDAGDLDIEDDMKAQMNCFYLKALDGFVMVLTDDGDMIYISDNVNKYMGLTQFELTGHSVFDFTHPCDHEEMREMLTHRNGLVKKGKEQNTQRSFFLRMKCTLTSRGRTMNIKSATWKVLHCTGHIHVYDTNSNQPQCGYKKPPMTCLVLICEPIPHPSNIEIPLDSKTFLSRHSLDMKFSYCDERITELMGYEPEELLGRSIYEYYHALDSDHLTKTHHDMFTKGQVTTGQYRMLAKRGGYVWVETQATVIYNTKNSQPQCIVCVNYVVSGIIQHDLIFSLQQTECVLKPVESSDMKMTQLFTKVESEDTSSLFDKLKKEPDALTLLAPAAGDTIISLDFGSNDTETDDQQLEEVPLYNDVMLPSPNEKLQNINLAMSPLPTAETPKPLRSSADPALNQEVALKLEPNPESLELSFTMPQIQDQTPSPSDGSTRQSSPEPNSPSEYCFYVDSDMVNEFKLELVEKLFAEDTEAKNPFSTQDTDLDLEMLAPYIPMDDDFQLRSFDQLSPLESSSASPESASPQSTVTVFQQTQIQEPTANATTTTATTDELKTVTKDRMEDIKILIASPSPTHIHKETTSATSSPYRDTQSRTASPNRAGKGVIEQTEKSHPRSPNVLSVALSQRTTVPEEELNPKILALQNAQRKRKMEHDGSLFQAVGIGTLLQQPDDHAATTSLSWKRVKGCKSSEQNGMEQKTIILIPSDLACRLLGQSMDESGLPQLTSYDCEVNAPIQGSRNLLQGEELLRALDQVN

[15] = Therapeutic index, ratio of IC50 for human MG63 cells to IC50 for human WI38 cells; format: cell-based, WI-38; conditions: MG63 cells and WI38 cells, read-out: Ratio IC50
Nucleic Acid [16] = assay: Binding affinity to HIF2alpha DNA by surface plasmon resonance assay; format: nucleic-acid assay
[17] = Therapeutic index, ratio of IC50 for human 786-O cells to IC50 for human WI38 cells; format: cell-based, WI-38; conditions: 786-O cells and WI38 cells, read-out: Ratio IC50
[18] = target: T1, Hypoxia inducible factors; HIF-1-alpha, HIF-2-alpha (Homo sapiens); assay: Inhibition of HIF1 transactivation in human U2OS cells after 4 hrs by luciferase reporter gene assay relative to untreated control; format: cell-based; conditions: concentration not given here
[19] = target: Hypoxia-inducible factor 1-alpha (Homo sapiens) (UniProt Q16665); assay: Inhibition of HIF1alpha in human U2OS cells in normaxia condition; format: cell-based
[20] = Therapeutic index, ratio of IC50 for human A498 cells to IC50 for human WI38 cells; format: cell-based; conditions: A498 cells and WI38 cells, read-out: Ratio IC50
[21] = Therapeutic index, ratio of IC50 for human OST cells to IC50 for human WI38 cells; format: cell-based; conditions: OST cells and WI38 cells, read-out: Ratio IC50
[22] = Therapeutic index, ratio of IC50 for human A549 cells to IC50 for human WI38 cells; format: cell-based; conditions: A549 cells and WI38 cells, read-out: Ratio IC50
[23] = Therapeutic index, ratio of IC50 for human U2OS cells to IC50 for human WI38 cells; format: cell-based; conditions: U2OS cells and WI38 cells, read-out: Ratio IC50
[24] = Therapeutic index, ratio of IC50 for human MNNG-HOS cells to IC50 for human WI38 cells; format: cell-based, HOS-TE85; conditions: MNNG-HOS cells and WI38 cells, read-out: Ratio IC50
[25] = Therapeutic index, ratio of IC50 for human TC135 cells to IC50 for human WI38 cells; format: cell-based; conditions: TC135 cells and WI38 cells, read-out: Ratio IC50
Nucleic Acid [26] = assay: Binding affinity to 5'-GGGGCGGGCACGGGGCGGG-3' DNA by surface plasmon resonance; format: nucleic-acid assay
U2OS [27] = assay: Downregulation of HIF1alpha protein level in human U2OS cells at 5 fold IC50 concentration within 2 hrs by Western blot analysis; format: functional, cell-based
Nucleic Acid [28] = assay: Binding affinity to HIF1alpha DNA by surface plasmon resonance assay; format: nucleic-acid assay

IC50 (U2OS [1]): 13 µM
IC50 (PC-3): 9.4 µM
IC50 (A549): 76 µM
IC50 (MIA PaCa-2): 11 µM
IC50 (PANC-1): 7.1 µM
IC50 (MCF7): 30 µM
Compound: O=C(CCN1CCCC1)Nc1cccc(-n2cc(-c3ccc4ccc(-c5cn(-c6cccc(NC(=O)CCN7CCCC7)c6)nn5)cc4c3)nn2)c1
IC50 (HPAC): 8 µM
IC50 [2]: 2.5 µM
IC50 (MG-63): > 100 µM
IC50 (SAOS-2): 2.7 µM
IC50 [3]: 5.85 µM
IC50 [4]: 1.9 µM
IC50 [5]: 8.9 µM
IC50 [6]: 6.8 µM
IC50 (HOS): 7.1 µM
IC50 (HOS-TE85): 2.9 µM
IC50 (A498): 7.5 µM
IC50 [7]: 4.2 µM
IC50 (WI-38): 18 µM
IC50 (OST): 2.2 µM

IC50 (U2OS [1]): 22 µM
IC50 (PC-3): 25 µM
IC50 (A549): 72 µM
IC50 (MIA PaCa-2): > 100 µM
IC50 (PANC-1): 29 µM
IC50 (MCF7): > 100 µM
Compound: O=C(CN1CCCC1)Nc1cccc(-n2cc(-c3ccc4ccc(-c5cn(-c6cccc(NC(=O)CN7CCCC7)c6)nn5)cc4c3)nn2)c1
IC50 (HPAC): 9 µM
IC50 [2]: 11 µM
IC50 (MG-63): 16 µM
IC50 (SAOS-2): 5.8 µM
IC50 [3]: 6.9 µM
IC50 [4]: 3 µM
IC50 [5]: 75 µM
IC50 [6]: 2.4 µM
IC50 (HOS): 2 µM
IC50 (HOS-TE85): 9 µM
IC50 (A498): 3.1 µM
IC50 [7]: 3.2 µM
IC50 (WI-38): 17 µM
IC50 (OST): 7.1 µM

IC50 (U2OS [1]): 5.5 µM
IC50 (PC-3): 8.05 µM
IC50 (A549): 60 µM
Activity (Nucleic Acid [9]): Active
inhibition [11]: Dose-dependent effect
inhibition [14]: Dose-dependent effect
K (Nucleic Acid [16]): 0.27 ×10⁷ /M
inhibition [18]: 7%
inhibition [19]: Dose-dependent effect
IC50 (MIA PaCa-2): 16.8 µM
IC50 (PANC-1): 31 µM
K (Nucleic Acid [26]): < 100000 M⁻¹
K (Nucleic Acid [28]): 0.29 ×10⁷ /M
IC50 (MCF7): 63 µM
Compound: CCN(CC)CC(=O)Nc1cccc(-n2cc(-c3ccc4ccc(-c5cn(-c6cccc(NC(=O)CN(CC)CC)c6)nn5)cc4c3)nn2)c1
IC50 (HPAC): 7.3 µM
Ratio [8]: 2.1
IC50 [2]: 2.4 µM
IC50 (MG-63): 7.9 µM
Ratio IC50 [10]: 2
Activity (U2OS [12]): 79.7%
selectivity ratio [13]: 40
IC50 (SAOS-2): 2.6 µM
selectivity ratio [15]: 40
selectivity ratio [17]: 40
selectivity ratio [20]: 40
IC50 [3]: 2.3 µM
IC50 [4]: 0.9 µM
IC50 [5]: 7.8 µM
selectivity ratio [21]: 40
IC50 [6]: 2.6 µM
selectivity ratio [22]: 40
selectivity ratio [23]: 40
IC50 (HOS): 2.4 µM
IC50 (HOS-TE85): 3.2 µM
selectivity ratio [24]: 40
IC50 (A498): 2.5 µM
selectivity ratio [25]: 40
IC50 [7]: 1.3 µM
IC50 (WI-38): 91 µM
Activity (U2OS [27]): Active
IC50 (OST): 2.6 µM

IC50 (U2OS [1]): 2.2 µM
IC50 (PC-3): 7.1 µM
IC50 (A549): 17 µM
IC50 (MIA PaCa-2): 7.2 µM
IC50 (PANC-1): 7.8 µM
IC50 (MCF7): 8.1 µM
Compound: O=C(CCN1CCCC1)Nc1ccc(-n2cc(-c3ccc4ccc(-c5cn(-c6ccc(NC(=O)CCN7CCCC7)cc6)nn5)cc4c3)nn2)cc1
IC50 (HPAC): 1.9 µM
IC50 [2]: 2.2 µM
IC50 (MG-63): 2.8 µM
IC50 (SAOS-2): 1.8 µM
IC50 [3]: 6.5 µM
IC50 [4]: 0.7 µM
IC50 [5]: 16 µM
IC50 [6]: 2.6 µM
IC50 (HOS): 0.6 µM
IC50 (HOS-TE85): 2.1 µM
IC50 (A498): 1.9 µM
IC50 [7]: 2.5 µM
IC50 (WI-38): 3.9 µM
IC50 (OST): 0.9 µM
